Test results taken from patent US8871681B2, “Herbicidal compositions comprising 4-amino-3-chloro-5-fluoro-6-(4-chloro-2-fluoro-3-methoxyphenyl) pyridine-2-carboxylic acid or a derivative thereof and certain sulfonylureas” (Dow AgroSciences LLC, priority 2012, dated 2014).

Key:
[1] = system: ECHCG (Echinochloa crusgalli, barnyardgrass); assay: Postemergence foliar-applied weed control, direct seeded rice, greenhouse (Example I); type: in vivo, Echinochloa crusgalli (L.) Beauv.
Source text: Seeds or nutlets of the desired test plant species were planted in a soil matrix prepared by mixing a loam or sandy loam soil (e.g., 28.6 percent silt, 18.8 percent clay, and 52.6 percent sand, with a pH of about 5.8 and an organic matter content of about 1.8 percent) and calcareous grit in an 80 to 20 ratio. The soil matrix was contained in plastic pots with a volume of 1 quart and a surface area of 83.6 square centimeters (cm^2). When required to ensure good germination and healthy plants, a fungicide treatment and/or other chemical or physical treatment was applied. The plants were grown for 8-22 days in a greenhouse with an approximate 14 h photoperiod which was maintained at about 29° C. during the day and 26° C. during the night. Nutrients (Peters Excel® 15-5-15 5-Ca 2-Mg and iron chelate) were applied in the irrigation solution as needed and water was added on a regular basis. Supplemental lighting was provided with overhead metal halide 1000-Watt lamps as necessary. The plants were employed for testing when they reached the first through fourth true leaf stage.
Treatments consisted of the acid or esters of 4-amino-3-chloro-5-fluoro-6-(4-chloro-2-fluoro-3-methoxy-phenyl)pyridine-2-carboxylic acid (Compound A), each formulated as an SC, and various herbicidal components alone and in combination. Forms of compound A were applied on an acid equivalent basis.
Other herbicidal components were applied on an active ingredient basis and included acetolactate synthase (ALS)-inhibiting herbicides (sulfonylurea chemical class) azimsulfuron formulated as Gulliver®, bensulfuron-methyl formulated as Londax® 60DF, cyclosulfamuron (technical material), ethoxysulfuron formulated as Sunrice® 15 WDG, flazasulfuron formulated as Katana®, flucetosulfuron formulated as Sukedachi® 1KG G, foramsulfuron formulated as Option®, imazosulfuron formulated as Brazzos® WG, iodosulfuron-methyl-sodium formulated as Hussar®, metsulfuron-methyl formulated as Lorate®, nicosulfuron formulated as Accent®, orthosulfamuron formulated as Strada® WG, primisulfuron-methyl (technical material), propyrisulfuron formulated as Zeta One®, rimsulfuron formulated as Matrix® WG, sulfometuron-methyl formulated as Oust®, and trifloxysulfuron-sodium formulated as Monument® 75WG.
Treatment requirements were calculated based upon the rates being tested, the concentration of active ingredient or acid equivalent in the formulation, and a 12 mL application volume at a rate of 187 L/ha.
For treatments comprised of formulated compounds, measured amounts of compounds were placed individually in 25 mL glass vials and diluted in a volume of 1.25% (v/v) Agri-Dex® crop oil concentrated to obtain 12× stock solutions. […] Application solutions were prepared by adding an appropriate amount of each stock solution (e.g., 1 mL) and diluted to the appropriate final concentrations with the addition of 10 mL of an aqueous mixture of 1.25% (v/v) crop oil concentrate so that the final spray solutions contained 1.25+/−0.05% (v/v) Agrcrop oil concentrate.
For treatments comprised of formulated and technical compounds, weighed amounts of the technical materials were placed individually in 25 mL glass vials and dissolved in a volume of 97:3 v/v acetone/DMSO to obtain 12× stock solutions, and measured amounts of the formulated compounds were placed individually in 25 mL glass vials and diluted in a volume of 1.25% (v/v) crop oil concentrate to obtain 12× stock solutions. […] Application solutions were prepared by adding an appropriate amount of each stock solution (e.g., 1 mL) and diluted to the appropriate final concentrations with the addition of an appropriate amount of an aqueous mixture of 1.5% (v/v) crop oil concentrate so that the final spray solutions contained 1.25% (v/v) crop oil concentrate. […]

[2] = system: LEFCH (Leptochloa chinensis, Chinese sprangletop); assay: In-water applied weed control, transplanted paddy rice, greenhouse (Example II); type: in vivo, Leptochloa chinensis (L.) Nees
In short: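 Transplanted rice and weeds at first to fourth true leaf stage in flooded mud pots (2.5–3 cm water), greenhouse ~29/26 °C day/night. Herbicides alone or mixed, in 1.25% crop oil concentrate (acetone for technical material), injected into the flood; visual 0–100% injury after ~3 weeks, expected mixture effects by Colby.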

COC(=O)c1ccccc1CS(=O)(=O)NC(=O)Nc1nc(OC)cc(OC)n1 [Bensulfuron-methyl, methyl 2-[[[[[(4,6-dimethoxy-2-pyrimidinyl)amino]carbonyl]amino]sulfonyl]methyl]benzoate, reference compound]
Visual Weed Control (%) Obs ([1]; 21 DAA, 17.5 gai/ha): 0% | Visual Weed Control (%) Obs ([1]; 21 DAA, 35 gai/ha): 0% | Visual Weed Control (%) Obs ([1]; 27 DAA, 4.38 gai/ha): 0% | Visual Weed Control (%) Obs ([1]; 27 DAA, 8.75 gai/ha): 0% | Visual Weed Control (%) Obs ([1]; 27 DAA, 17.5 gai/ha): 0% | Visual Weed Control (%) - 19 DAA LEFCH Obs ([2]; Table 31, 70 gai/ha alone): 23%

COc1c(Cl)ccc(-c2nc(C(=O)OCc3ccccc3)c(Cl)c(N)c2F)c1F [Compound A Benzyl Ester]
Visual Weed Control (%) Obs ([1]; 21 DAA, 4.38 gae/ha): 10% | Visual Weed Control (%) - 22 DAA LEFCH Obs ([2]; Table 35, 4.38 gae/ha alone): 20% | Visual Weed Control (%) - 20 DAA LEFCH Obs ([2]; Table 50, 4.38 gae/ha alone): 20%

COc1c(Cl)ccc(-c2nc(C(=O)O)c(Cl)c(N)c2F)c1F [Compound A Acid, 4-amino-3-chloro-5-fluoro-6-(4-chloro-2-fluoro-3-methoxy-phenyl)pyridine-2-carboxylic acid]
Visual Weed Control (%) Obs ([1]; 21 DAA, 4.38 gae/ha): 15% | Visual Weed Control (%) Obs ([1]; 21 DAA, 8.75 gae/ha): 50% | Visual Weed Control (%) - 19 DAA LEFCH Obs ([2]; Table 31, 42 gae/ha alone): 10% | Visual Weed Control (%) - 22 DAA LEFCH Obs ([2]; Table 34, 10.6 gae/ha alone): 20% | Visual Weed Control (%) - 22 DAA LEFCH Obs ([2]; Table 34, 21.2 gae/ha alone): 40% | Visual Weed Control (%) - 22 DAA LEFCH Obs ([2]; Table 34, 42.4 gae/ha alone): 60% | Visual Weed Control (%) - 21 DAA LEFCH Obs ([2]; Table 36, 17.5 gae/ha alone): 20% | Visual Weed Control (%) - 20 DAA LEFCH Obs ([2]; Table 43, 10.6 gae/ha alone): 30% | Visual Weed Control (%) - 20 DAA LEFCH Obs ([2]; Table 43, 21.2 gae/ha alone): 20% | Visual Weed Control (%) - 20 DAA LEFCH Obs ([2]; Table 43, 42.4 gae/ha alone): 75% | Visual Weed Control (%) - 21 DAA LEFCH Obs ([2]; Table 47, 17.5 gae/ha alone): 20% | Visual Weed Control (%) - 20 DAA LEFCH Obs ([2]; Table 49, 10.6 gae/ha alone): 30% | Visual Weed Control (%) - 20 DAA LEFCH Obs ([2]; Table 49, 21.2 gae/ha alone): 20% | Visual Weed Control (%) - 20 DAA LEFCH Obs ([2]; Table 49, 42.4 gae/ha alone): 75%

COCC(=O)OC(c1ncccc1S(=O)(=O)NC(=O)Nc1nc(OC)cc(OC)n1)C(C)F (stereo not shown) [Flucetosulfuron, 1-[3-[[[[(4,6-dimethoxy-2-pyrimidinyl)amino]carbonyl]amino]sulfonyl]-2-pyridinyl]-2-fluoropropyl 2-methoxyacetate]
Visual Weed Control (%) - 21 DAA LEFCH Obs ([2]; Table 36, 0.1 gai/ha alone): 0% | Visual Weed Control (%) - 21 DAA LEFCH Obs ([2]; Table 36, 0.2 gai/ha alone): 0%
